From US20260295119A1, “TARGET FOR COMBATTING THE FOREIGN BODY RESPONSE TO IMPLANTABLE BIOMATERIALS” (The Regents of the University of Colorado, a body corporate, priority 2023, published 2026)
Blank lines part the entries; values can stand above or below the molecule they belong to. No end group written: not given here.

Columns and labels:
[1] = target: T1, human MMP-12 (Homo sapiens, UniProt P39900); experiment: Cleavage of hydrogel-tethered tryptophan peptides by MMP-12; assay type: biochemical; settings: role: substrate; 5 nM activated MMP-12, 285 nm; p<0.001
T1 construct: purchased R&D Systems
Protocol: To test the cleavability of the chosen peptides by MMP-12, the sequences were modified with tryptophan residues, tethered to PEG hydrogels at 5 μM concentration, and exposed to 5 nM MMP-12 in buffer. First, the maleimide of acrylate-PEG-maleimide (MW 3,400 g/mol) was reacted with the cysteine residue contained in the peptide sequence to create a PEG-conjugated peptide with tryptophan at one end and an acrylate group at the other. This product was then combined with PEGDA monomer and photoinitiator in PBS and photopolymerized, yielding a gel (FIG. 14C). The release of the tryptophan-containing cleaved portion of the sequence was monitored by measuring buffer absorbance at 285 nm over time (FIG. 14D).
For the release studies, acrylate-PEG-maleimide (6.8 mg) was reacted with peptide (GWGPLGLEEACG [SEQ ID NO. 2] or GWGPLGLARCG [SEQ ID NO. 1], 5 mM) in 500 μL dry DMF for 30 minutes with stirring. PEGDA (100 mg) was then added to the reaction mixture and vortexed to combine. Irgacure 2959 was added as photoinitiator in dry DMF (6 mg/mL). This precursor solution was gelled between glass slides with a 1 mm spacer under UV light for 45 minutes. The resulting 20 wt % hydrogel was soaked in ultrapure water to rinse away DMF followed by additional rinses in TCNB assay buffer (50 mM Tris, 10 mM CaCl2, 150 mM NaCl, 0.05% (w/v) Brij-35, pH 7.5).
Tryptophan Release: Peptide-conjugated hydrogels swollen in TCNB assay buffer were punched to 5 mm diameter and placed in wells of a 96-well clear, flat bottom well plate (n=4 gels for each peptide). Human MMP-12 was reconstituted in 10 mM MES, 0.1 M NaCl, 100 μM CaCl2, 0.1% (w/v) CHAPS, 1 μM ZnSO4, 0.1% (w/v) PEG, pH 6.0 buffer to 0.25 mg/mL. It was then diluted to 50 μg/mL with TCNB assay buffer and activated by adding 100 mM APMA in DMSO to 1 mM final concentration and incubating at 37° C. for 24 hours. […] At each time point, 2 μL supernatant was removed from each well and spectrophotometrically measured on the Nanodrop at 285 nm. […]

[2] = system: RAW 264.7 macrophages; experiment: IL-6 production by PAM3CSK4-stimulated RAW 264.7 macrophages; assay type: cell-based, mouse
Protocol: The ability of free MyD88 inhibitor T6167923 (Br) or T6167923 (SH) in solution to attenuate pro-inflammatory cytokine production by macrophages treated with PAM3CSK4 was assessed (FIG. 12A). When macrophages were treated with PAM3CSK4, IL-6 production increased (p<0.01) by 3-fold. […] Comparing the two inhibitors at 100 μM, T6167923 (Br) had attenuated IL-6 production by 89%, while T6167923 (SH) had attenuated IL-6 product by 58%.
Inhibitor Preparation and Synthesis: 200 μM stock solutions of T6167923 (Br) and T6167923 (SH) were prepared by first dissolving the inhibitors in 100 μL anhydrous DMSO, then adding dropwise to 9.9 mL culture medium and sterile filtering. The stock solution was then serially diluted in additional cell culture medium to make treatment concentrations. The inhibitor-PEG-peptide molecule was synthesized as follows. Bromoacetamido-dPEG12-TFP ester (36 mg) was added to 400 μL anhydrous DMSO and stirred in an amber vial to dissolve. T6167923 (SH) (17.65 mg) was dissolved in 100 μL anhydrous DMSO before being added dropwise to the amber vial. After 20 minutes of stirring, 1.5 mL of 50 mM sodium bicarbonate buffer, pH 8.4 was slowly added to the vial and the reaction was continued for an additional 20 minutes. Triglycine (8.6 mg) was combined with 2 mL of 50 mM sodium bicarbonate buffer, pH 8.4, then added dropwise to the reaction mixture in the amber vial with stirring. The reaction progressed overnight, then the product was purified by dialysis with 100-500 MWCO tubing against DI water. The reaction was monitored by consumption of sulfhydryls and primary amines. The product was sterile filtered and then lyophilized.
Cell Culture: RAW 264.7 cells were cultured in DMEM with 10% FBS and 1% penicillin/streptomycin at 37° C. and 5% CO2. Depending on the experiment, cells were seeded in tissue culture polystyrene (TCPS) well plates ([…]) or on hydrogels at 625,000 cells/cm^2 and allowed to adhere overnight. For transwell experiments, a transwell with a hydrogel was inserted into the well after the cells were allowed to adhere. For the (T6167923 (Br), T6167923 (SH)), and inhibitor-PEG-peptide studies, cells were treated with inhibitor for a specified period of time. To do this, medium was aspirated from the well and replaced with inhibitor-containing DMEM. Control conditions included cells only and cells plus 1% anhydrous DMSO by volume. After a specified period of culture time, PAM3CSK4 was added at 50 ng/ml and the cells were cultured for a prescribed period of time. Medium was collected and flash frozen for ELISA. […]
(§1) Protein Assays: Cell culture medium was thawed on ice. IL-6 in the culture media was quantified using an ELISA. MMP-12 production in culture media was measured per kit instructions. […]

[3] = system: RAW 264.7 macrophages; experiment: MMP-12 secretion by RAW 264.7 macrophages (ELISA); assay type: cell-based, mouse; settings: PAM3CSK4 50 ng/ml, 8 h
Protocol: RAW 264.7 macrophages were cultured in serum-free (1% ITS) media (FIG. 14A) or serum-containing medium (10% FBS) (FIG. 14(B)) and treated or not with PAM3CSK4 (50 ng/ml), then their secretion of MMP-12 over the 8-hour period was evaluated by ELISA. Macrophages with (p<0.01) and without (p<0.001) PAM3CSK4 stimulation secreted MMP-12 when cultured in the serum-free media, with average levels of 245 and 556 μg/mL, respectively. In serum-containing media, the production of MMP-12 was on average 178 μg MMP-12/mL (p<0.01 relative to blank) in unstimulated cells. […] Unstimulated cells in the same media secreted MMP-12. MMP-12 production by the cells was higher in ITS media than in FBS media.
Cell Culture: RAW 264.7 cells were cultured in DMEM with 10% FBS and 1% penicillin/streptomycin at 37° C. and 5% CO2. Depending on the experiment, cells were seeded in tissue culture polystyrene (TCPS) well plates ([…]) or on hydrogels at 625,000 cells/cm^2 and allowed to adhere overnight. For transwell experiments, a transwell with a hydrogel was inserted into the well after the cells were allowed to adhere. […]
as §1

T1 sequence (P39900 106-470): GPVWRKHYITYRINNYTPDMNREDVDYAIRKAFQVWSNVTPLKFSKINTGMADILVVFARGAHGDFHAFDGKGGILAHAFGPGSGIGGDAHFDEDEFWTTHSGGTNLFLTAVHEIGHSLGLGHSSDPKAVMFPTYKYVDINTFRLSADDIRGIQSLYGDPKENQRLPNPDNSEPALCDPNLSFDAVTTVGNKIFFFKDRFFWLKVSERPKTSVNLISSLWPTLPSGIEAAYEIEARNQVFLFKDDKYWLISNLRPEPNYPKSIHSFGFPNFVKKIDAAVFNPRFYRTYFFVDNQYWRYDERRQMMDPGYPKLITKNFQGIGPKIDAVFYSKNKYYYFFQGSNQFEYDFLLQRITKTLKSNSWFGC

- cleavage by MMP-12 (tryptophan cumulative release) [1]: cleaved by the MMP-12
Molecule: GWGPLGLEEACG [SEQ ID NO. 2]: MMP-12 cleavable peptide, tryptophan modified, tethered to PEG hydrogel (also: tethered to PEG hydrogel)

Molecule: C[C@H](NC(=O)N1CCN(S(=O)(=O)c2cccc(Br)c2)CC1)c1cccs1 [T6167923 (Br)]
- attenuation of IL-6 production ([2]; 100 μM inhibitor, PAM3CSK4 50 ng/ml): 89%
- dose dependence of IL-6 attenuation ([2]; PAM3CSK4 50 ng/ml): a dose-dependent response was observed
- inhibitor concentrations at which IL-6 was significantly lower than untreated PAM3CSK4-stimulated cells ([2]; PAM3CSK4 50 ng/ml): 50 to 200 µM

- cleavage by MMP-12 (tryptophan cumulative release) [1]: cleaved by the MMP-12
- rate of cleavage by MMP-12 relative to the longer peptide (SEQ ID NO. 2) [1]: slightly faster rate
Molecule: GWGPLGLARCG [SEQ ID NO. 1]: MMP-12 cleavable peptide, tryptophan modified, tethered to PEG hydrogel (also: tethered to PEG hydrogel)

Molecule: PAM3CSK4
- MMP-12 levels compared to blank (no cells) ([3]; serum-containing medium (10% FBS)): not statistically different to the blank
- MMP-12 secretion ([3]; serum-free (1% ITS) media, p<0.01 vs blank): 245 µg/mL
- increase in IL-6 production ([2]; PAM3CSK4 treatment vs unstimulated, no inhibitor, p<0.01): 3 -fold
